How the values were obtained:
panel of 442 kinases [1] = target: T1, panel of 442 kinases (Homo sapiens, UniProt Q86Z02); assay type: binding; details: Compound Concentration 10 µM
T1 construct: purchased KINOMEscan
Source text: (§1) We assessed the selectivity of members of this scaffold using the KINOMEscan methodology across a near comprehensive panel of 442 kinases [[18,27]].

panel of 442 kinases [2] = target: T2, panel of 442 kinases (Homo sapiens, UniProt Q8IYT8); assay type: binding; details: kinase ULK2; compound concentration 10 µM
T2 construct: purchased KINOMEscan
T2 sequence (Q8IYT8 1-1036): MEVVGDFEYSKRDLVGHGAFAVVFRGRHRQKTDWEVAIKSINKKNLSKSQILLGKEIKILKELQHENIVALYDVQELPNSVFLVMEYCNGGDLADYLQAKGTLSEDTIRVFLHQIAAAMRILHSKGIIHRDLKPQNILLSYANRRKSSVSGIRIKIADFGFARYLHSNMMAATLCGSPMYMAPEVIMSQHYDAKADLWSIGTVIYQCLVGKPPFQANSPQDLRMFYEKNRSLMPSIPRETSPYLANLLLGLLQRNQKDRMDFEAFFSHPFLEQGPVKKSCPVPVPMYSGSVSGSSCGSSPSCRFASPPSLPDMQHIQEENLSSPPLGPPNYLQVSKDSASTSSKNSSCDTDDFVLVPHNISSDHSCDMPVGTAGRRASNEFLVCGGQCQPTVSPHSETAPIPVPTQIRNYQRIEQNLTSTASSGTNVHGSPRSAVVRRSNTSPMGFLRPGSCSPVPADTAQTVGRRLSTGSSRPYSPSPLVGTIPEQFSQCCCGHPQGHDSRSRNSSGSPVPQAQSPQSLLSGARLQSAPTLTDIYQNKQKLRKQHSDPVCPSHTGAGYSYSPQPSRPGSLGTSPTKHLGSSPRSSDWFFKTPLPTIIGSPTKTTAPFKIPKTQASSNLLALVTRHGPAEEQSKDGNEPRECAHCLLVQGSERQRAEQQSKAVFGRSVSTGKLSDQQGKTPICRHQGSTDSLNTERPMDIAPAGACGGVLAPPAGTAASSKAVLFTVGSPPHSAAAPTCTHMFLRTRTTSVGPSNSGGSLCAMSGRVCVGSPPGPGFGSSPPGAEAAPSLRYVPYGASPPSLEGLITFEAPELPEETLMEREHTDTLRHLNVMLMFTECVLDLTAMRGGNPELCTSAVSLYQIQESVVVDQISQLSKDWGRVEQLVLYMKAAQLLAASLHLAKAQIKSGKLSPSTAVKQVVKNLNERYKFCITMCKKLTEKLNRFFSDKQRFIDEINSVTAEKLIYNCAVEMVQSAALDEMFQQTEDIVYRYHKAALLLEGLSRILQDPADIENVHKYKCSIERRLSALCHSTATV
Source text: as §1

T1 sequence (Q86Z02 whole entry): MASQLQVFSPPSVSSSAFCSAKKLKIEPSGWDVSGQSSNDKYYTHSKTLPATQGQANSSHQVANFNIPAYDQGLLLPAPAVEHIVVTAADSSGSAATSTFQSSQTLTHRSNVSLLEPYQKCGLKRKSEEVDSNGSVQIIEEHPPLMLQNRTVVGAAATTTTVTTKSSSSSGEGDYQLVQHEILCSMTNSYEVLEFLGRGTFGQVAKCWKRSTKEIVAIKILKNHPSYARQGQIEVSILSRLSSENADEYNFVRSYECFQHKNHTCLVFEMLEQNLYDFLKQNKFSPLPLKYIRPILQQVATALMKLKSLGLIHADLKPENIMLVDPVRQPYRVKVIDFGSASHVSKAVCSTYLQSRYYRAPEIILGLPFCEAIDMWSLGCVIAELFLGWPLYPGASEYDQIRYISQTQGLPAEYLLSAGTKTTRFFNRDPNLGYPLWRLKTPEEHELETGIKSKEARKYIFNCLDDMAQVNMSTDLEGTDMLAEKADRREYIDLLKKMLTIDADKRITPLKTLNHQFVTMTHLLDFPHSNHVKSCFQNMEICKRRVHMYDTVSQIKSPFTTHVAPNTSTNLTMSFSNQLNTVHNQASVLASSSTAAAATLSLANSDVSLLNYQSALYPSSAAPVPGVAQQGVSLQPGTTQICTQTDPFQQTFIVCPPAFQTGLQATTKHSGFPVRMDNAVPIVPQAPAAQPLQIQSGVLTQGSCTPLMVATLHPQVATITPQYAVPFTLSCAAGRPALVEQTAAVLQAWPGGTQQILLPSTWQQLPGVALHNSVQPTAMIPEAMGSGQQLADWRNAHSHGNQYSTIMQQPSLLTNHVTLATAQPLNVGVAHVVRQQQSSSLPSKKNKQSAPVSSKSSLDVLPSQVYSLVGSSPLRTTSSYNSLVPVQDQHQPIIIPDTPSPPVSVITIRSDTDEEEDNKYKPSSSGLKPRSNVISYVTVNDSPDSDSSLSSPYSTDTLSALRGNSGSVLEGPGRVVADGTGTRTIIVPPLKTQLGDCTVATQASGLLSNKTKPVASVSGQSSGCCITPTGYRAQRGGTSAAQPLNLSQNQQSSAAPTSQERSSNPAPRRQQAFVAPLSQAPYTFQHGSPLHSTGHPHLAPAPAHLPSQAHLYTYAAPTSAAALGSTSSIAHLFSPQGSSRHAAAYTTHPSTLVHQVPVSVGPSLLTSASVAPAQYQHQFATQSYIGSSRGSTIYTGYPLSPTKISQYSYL

Structure (SMILES)	KINOMEscan: HIPK1 (panel of 442 kinases [1])	% Ctrl, ULK2 (panel of 442 kinases [2]) [% Ctrl]
COc1cc(C(=O)N2CCC(N3CCN(C)CC3)CC2)ccc1Nc1ncc2c(n1)N(C1CCCC1)c1ccccc1C(=O)N2C [Compound 25, 11-cyclopentyl-2-((2-methoxy-4-(4-(4-methylpiperazin-1-yl)piperidine-1-carbonyl)phenyl)amino)-5-methyl-5H-benzo[e]pyrimido[5,4-b][1,4]diazepin-6(11H)-one]	100	75
CCOc1cc(C(=O)N2CCC(N3CCN(C)CC3)CC2)ccc1Nc1ncc2c(n1)N(C1CCCC1)c1ccccc1C(=O)N2C [Compound 26]	100	98
COc1cc(C(=O)N2CCC(N3CCN(C)CC3)CC2)ccc1Nc1ncc2c(n1)N1CCc3cccc(c31)C(=O)N2C [Compound 24]	52	96
COc1cc(C(=O)N2CCC(N3CCN(C)CC3)CC2)ccc1Nc1ncc2c(n1)N(C)c1ccccc1C(=O)N2C [15 (LRRK2-IN-1)]	100	67

— publication PMC3914206
